Measured values published in patent US11753407B2, “Compounds for treating spinal muscular atrophy” (PTC Therapeutics, Inc., priority 2012, dated 2023).

How the values were obtained:
[1] = test system: SMN2 minigene mRNA (SMN2-A minigene) in HEK293H cells; assay: SMN2 minigene mRNA splicing RT-qPCR assay in cultured cells; assay type: cell-based, human; details: Homo sapiens, HEK293-H; concentration increasing full length SMN2 mRNA 1.5-fold relative to vehicle-treated cells; HEK293H cells with SMN2-A minigene, 24 hours, 7-point concentration data; read-out: EC1.5x for production of full length SMN2 mRNA
Summary of the method: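 EC1.5× = concentration raising full-length SMN2 minigene mRNA 1.5-fold over vehicle, from 7-point curves in duplicate. Stably transfected HEK293H cells exposed 24 h at 37 °C; lysates assayed by multiplex RT-qPCR, minigene FL signal normalized to GAPDH via modified ΔΔCt.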

[2] = test system: Smn protein in SMA patient fibroblast cells (GM03813); assay: Smn protein assay in cultured cells (SMN HTRF); assay type: cell-based, human; details: SMA patient fibroblast cells, 48 hours; for maximum fold (Fold) increase of Smn protein: 7-point concentration data, fold relative to vehicle control; for EC1.5x for Smn protein expression: 7-point concentration curve, SMN HTRF, concentration producing 1.5 times Smn protein vs DMSO vehicle control
Summary of the method: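 Smn protein quantified by HTRF with anti-SMN d2/kryptate pair, 665/620 nm ratio blank-corrected, in RIPA lysates of GM03813 fibroblasts after 48 h compound exposure (7 concentrations, 3.16-fold steps, triplicates). Values: concentration producing 1.5× vehicle Smn level, and maximal fold increase.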

Row | melting point | Structure (SMILES) | EC (1.5-fold increase) [1] | maximum fold (Fold) increase of Smn protein [2] | EC1.5x for Smn protein expression [2]
1 | 266 to 272 °C | O=c1cc(-c2ccc3[nH]ccc3c2)nc2ccc(N3CCNCC3)cn12 [Cpd 98, 2-(1H-indol-5-yl)-7-(piperazin-1-yl)-4H-pyrido[1,2-a]pyrimidin-4-one] | 1 to 3 µM | *** (a fold increase between >1.35 and ≤1.5 is indicated by three stars (***)) | 
2 | 170 to 172 °C | COc1ccc(-c2cc(=O)n3cc(N4CCNCC4)ccc3c2)cc1OC [Cpd 106, 2-(3,4-dimethoxyphenyl)-7-(piperazin-1-yl)-4H-quinolizin-4-one] | 0.3 to 1 µM | **** (a fold increase between >1.5 and ≤1.65 is indicated by four stars (****)) | ** (an EC1.5× between >1 μM and ≤3 μM is indicated by two stars (**))
3 | 258 to 270 °C | O=c1cc(-c2ccn3ccnc3c2)nc2ccc(N3CCNCC3)cn12 [Cpd 107, 2-(imidazo[1,2-a]pyridin-7-yl)-7-(piperazin-1-yl)-4H-pyrido[1,2-a]pyrimidin-4-one] | 0.3 to 1 µM | ** (a fold increase between >1.2 and ≤1.35 is indicated by two stars (**)) | 
4 | 259 to 267 °C | Cc1cn2cc(-c3cc(=O)n4cc(N5CCNCC5)ccc4n3)ccc2n1 [Cpd 109, 2-(2-methylimidazo[1,2-a]pyridin-6-yl)-7-(piperazin-1-yl)-4H-pyrido[1,2-a]pyrimidin-4-one] | < 0.1 µM | **** (a fold increase between >1.5 and ≤1.65 is indicated by four stars (****)) | **** (an EC1.5x≤0.3 μM is indicated by four stars (****))
5 | 252 to 255 °C | O=c1cc(-c2cnc3[nH]ccc3c2)nc2ccc(N3CCNCC3)cn12 [Cpd 128, 7-(piperazin-1-yl)-2-(1H-pyrrolo[2,3-b]pyridin-5-yl)-4H-pyrido[1,2-a]pyrimidin-4-one] | 0.3 to 1 µM | *** (a fold increase between >1.35 and ≤1.5 is indicated by three stars (***)) | 
6 | 214 to 217 °C | COc1ccc(-c2cc(=O)n3cc(C4CCNCC4)ccc3n2)cc1OC [Cpd 144, 2-(3,4-dimethoxyphenyl)-7-(piperidin-4-yl)-4H-pyrido[1,2-a]pyrimidin-4-one] | < 0.1 µM | **** (a fold increase between >1.5 and ≤1.65 is indicated by four stars (****)) | **** (an EC1.5x≤0.3 μM is indicated by four stars (****))
7 | 180 to 186 °C | CCOc1ccc(-c2cc(=O)n3cc(N4CCNCC4)ccc3n2)cc1F [Cpd 153, 2-(4-ethoxy-3-fluorophenyl)-7-(piperazin-1-yl)-4H-pyrido[1,2-a]pyrimidin-4-one] | 0.3 to 1 µM | ** (a fold increase between >1.2 and ≤1.35 is indicated by two stars (**)) | 
8 | 142 to 147 °C | Cc1csc(-c2cc(=O)n3cc(N4CCNCC4)ccc3n2)n1 [Cpd 163, 2-(4-methyl-1,3-thiazol-2-yl)-7-(piperazin-1-yl)-4H-pyrido[1,2-a]pyrimidin-4-one] | 1 to 3 µM | *** (a fold increase between >1.35 and ≤1.5 is indicated by three stars (***)) | 
9 | 181 to 183 °C | COc1ccc(-c2cc(=O)n3cc(C4CCN(C)CC4)ccc3n2)cc1OC [Cpd 164, 2-(3,4-dimethoxyphenyl)-7-(1-methylpiperidin-4-yl)-4H-pyrido[1,2-a]pyrimidin-4-one] | 0.3 to 1 µM | **** (a fold increase between >1.5 and ≤1.65 is indicated by four stars (****)) | ** (an EC1.5× between >1 μM and ≤3 μM is indicated by two stars (**))
10 | 178 to 183 °C | Cc1nc2ccc(-c3cc(=O)n4cc(N5CCN(C)CC5)ccc4n3)cc2o1 [Cpd 171, 2-(2-methyl-1,3-benzoxazol-6-yl)-7-(4-methylpiperazin-1-yl)-4H-pyrido[1,2-a]pyrimidin-4-one] | < 0.1 µM | ***** (a fold increase >1.65 is indicated by five stars (*****)) | **** (an EC1.5x≤0.3 μM is indicated by four stars (****))
11 | 204 to 206 °C | Cc1cn(-c2cc(=O)n3cc(N4CCNCC4)ccc3n2)cn1 [Cpd 179, 2-(4-methyl-1H-imidazol-1-yl)-7-(piperazin-1-yl)-4H-pyrido[1,2-a]pyrimidin-4-one] | 0.3 to 1 µM | ***** (a fold increase >1.65 is indicated by five stars (*****)) | *** (an EC1.5× between >0.3 μM and ≤1 μM is indicated by three stars (***))
12 | 166 to 170 °C | COc1ncc(-c2cc(=O)n3cc(N4CCNCC4)ccc3n2)cc1F [Cpd 182, 2-(5-fluoro-6-methoxypyridin-3-yl)-7-(piperazin-1-yl)-4H-pyrido[1,2-a]pyrimidin-4-one] | 0.3 to 1 µM | **** (a fold increase between >1.5 and ≤1.65 is indicated by four stars (****)) | *** (an EC1.5× between >0.3 μM and ≤1 μM is indicated by three stars (***))
13 | 168 to 170 °C | C[C@H]1CN(c2ccc3nc(-c4cnn(C)c4)cc(=O)n3c2)CCN1 [Cpd 191, 7-[(3S)-3-methylpiperazin-1-yl]-2-(1-methyl-1H-pyrazol-4-yl)-4H-pyrido[1,2-a]pyrimidin-4-one] | 1 to 3 µM | **** (a fold increase between >1.5 and ≤1.65 is indicated by four stars (****)) | ** (an EC1.5× between >1 μM and ≤3 μM is indicated by two stars (**))
14 | 282 to 288 °C | Cc1cn2cc(-c3cc(=O)n4cc(N5CCNCC5)ccc4n3)cc(F)c2n1 [Cpd 209, 2-(8-fluoro-2-methylimidazo[1,2-a]pyridin-6-yl)-7-(piperazin-1-yl)-4H-pyrido[1,2-a]pyrimidin-4-one] | < 0.1 µM | **** (a fold increase between >1.5 and ≤1.65 is indicated by four stars (****)) | **** (an EC1.5x≤0.3 μM is indicated by four stars (****))

Row | Structure (SMILES) | melting point | EC (1.5-fold increase) [1] | maximum fold (Fold) increase of Smn protein [2] | EC1.5x for Smn protein expression [2]
15 | COc1ccc(-c2cc(=O)n3cc(C4=CCNCC4)ccc3n2)cc1OC [Cpd 143, 2-(3,4-dimethoxyphenyl)-7-(1,2,3,6-tetrahydropyridin-4-yl)-4H-pyrido[1,2-a]pyrimidin-4-one] | 196 to 198 °C | < 0.1 µM | ***** (a fold increase >1.65 is indicated by five stars (*****)) | **** (an EC1.5x≤0.3 μM is indicated by four stars (****))
16 | COc1ccc(-c2cc(=O)n3cc(C4=CCN(C)CC4)ccc3n2)cc1OC [Cpd 188, 2-(3,4-dimethoxyphenyl)-7-(1-methyl-1,2,3,6-tetrahydropyridin-4-yl)-4H-pyrido[1,2-a]pyrimidin-4-one] | 165 to 168 °C | 0.1 to 0.3 µM | ***** (a fold increase >1.65 is indicated by five stars (*****)) | *** (an EC1.5× between >0.3 μM and ≤1 μM is indicated by three stars (***))
